This data set concerns 3T3 cells. In words: Biocompatibility evaluation (live/dead, CCK-8, extract medium). It counts as cell-based. The procedure:
The tests in this example were conducted under the following conditions/standards. • 5. Mechanical property test: The mechanical properties of bionic excipients were based on the ASTM F2458-05 standard. GelMA, PGLADMA and double-layer GelMA/PGLADMA samples with a size of 20×5 mm were prepared and stretched at a rate of 1 mm/min using a two-arm mechanical tensile instrument at room temperature, and the mechanical properties were calculated, where tensile elastic modulus=stress/strain. For example, reference can be made to the test method in Theocharidis G, Yuk H, Roh H, et al. A strain-programmed patch for the healing of diabetic wounds [J]. Nature biomedical engineering, 2022, 6 (10): 1118-1133. • 6. Hemostatic property: For the hemostatic properties of bionic excipients, for example, reference can be made to Guo Y, Wang Y, Zhao X, et al. Snake extract-laden hemostatic bioadhesive gel cross-linked by visible light [J]. Science Advances, 2021, 7 (29): cabf9635. • 7. […] After 1, 2, and 3 days of incubation, cell viability and cell proliferation were evaluated using a live/dead cell detection kit (Thermo Fisher, Hong Kong) and a CCK-8 kit (Sigma-Aldrich, Hong Kong), respectively. […]

Regarding `Oc1cc(Cl)ccc1Oc1ccc(Cl)cc1Cl` [TCS, triclosan], the toxicity to cells result reads like this: (TCS concentration below 5%) “no toxicity”; (TCS concentration of around 10%) “only slightly toxic”.

Source of the values: patent US20250281665A1, “BIONIC DRESSING-FORMING COMPOSITION, BIONIC DRESSING, AND METHOD OF FORMING THE BIONIC DRESSING” (THE HONG KONG POLYTECHNIC UNIVERSITY, priority 2024, published 2025).
